Activity calls are given as the source filed them. The calls are words filed in the database; no cut-off is given here.
Experiments:
[1] = tested on: BV-2; test: Anti-inflammatory activity against LPS-stimulated mouse BV-2 cells assessed as inhibition of LPS-induced NO production incubated for 24 hrs in presence of LPS; type: functional, cell-based; conditions: dose 1-9 µM
[2] = tested on: BV-2; test: Anti-inflammatory activity against LPS-stimulated mouse BV-2 cells assessed as inhibition of LPS-induced IL-1 beta production incubated for 24 hrs in presence of LPS; type: functional, cell-based; conditions: dose 1-9 µM
[3] = organism: Danio rerio; test: Antialzheimer activity against AlCl3-induced Alzheimer's disease zebra fish model assessed as total distance moved at 0.0049 ug/ml treated for 24 hrs and measured after 24 hrs under alternating light dark stimuli conditions (reference value: 543 cm); type: functional; conditions: dose 0.0049 µg/ml; time 48 hrs
[4] = target: T1, Acetylcholinesterase (Electrophorus electricus, UniProt O42275); test: Drug metabolism assessed as electric eel AChE-mediated 3-(4-fluorophenyl)-1-(2-hydroxyphenyl)prop-2-en-1-one formation treated at 150 mmol/L with 0.25U AChE and measured after 6 secs by HPLC analysis; type: ADME; conditions: 6 s, time 6 sec
[5] = tested on: PC-12; test: Neuroprotective activity against Amyloid beta(25 to 35)-induced cell injury in rat PC12 cells assessed as cell viability at 20 uM pretreated for 2 hrs followed by incubation with Abeta(25 to 35) for 24 hrs by CCK-8 assay (reference value: 41 to 58.6%); type: functional; conditions: time 26 hrs, read-out: Activity
[6] = organism: Danio rerio; test: Neuroprotective activity against AlCl3-induced Alzheimer's disease zebra fish model assessed as distance velocity at 0.0195 ug/ml treated for 24 hrs and measured after 24 hrs under light environment (reference value: 7.7 cm/min); type: functional; conditions: dose 0.0195 µg/ml; time 48 hrs
[7] = organism: Danio rerio; test: Neuroprotective activity against AlCl3-induced Alzheimer's disease zebra fish model assessed as distance velocity at 0.078 ug/ml treated for 24 hrs and measured after 24 hrs under light environment (reference value: 7.7 cm/min); type: functional; conditions: dose 0.078 µg/ml; time 48 hrs
[8] = organism: Danio rerio; test: Antialzheimer activity against AlCl3-induced Alzheimer's disease zebra fish model assessed as total distance moved at 0.0049 ug/ml treated for 24 hrs and measured after 24 hrs measured under light environment (reference value: 230 cm); type: functional; conditions: dose 0.0049 µg/ml; time 48 hrs
[9] = target: T2, Cholinesterase (Equus caballus, UniProt P81908); test: Drug metabolism assessed as equine serum BuChE-mediated 3-(4-fluorophenyl)-1-(2-hydroxyphenyl)prop-2-en-1-one formation treated at 150 mmol/L with 0.05U BuChE and measured after 9 mins by HPLC analysis; type: ADME, cell-free; conditions: horse, 0.15 h
[10] = target: T2, Cholinesterase; test: Drug metabolism assessed as equine serum BuChE-mediated 3-(4-fluorophenyl)-1-(2-hydroxyphenyl)prop-2-en-1-one formation by measuring decarbamoylation rate constant with 0.25U BuChE for 9 mins by HPLC analysis; type: ADME, cell-free; conditions: horse, 0.15 h
[11] = target: T1, Acetylcholinesterase; test: Drug metabolism assessed as electric eel AChE-mediated 3-(4-fluorophenyl)-1-(2-hydroxyphenyl)prop-2-en-1-one formation treated at 150 mmol/L with 0.25U AChE and measured after 9 mins by HPLC analysis; type: ADME; conditions: 0.15 h
[12] = target: T1, Acetylcholinesterase; test: Drug metabolism assessed as electric eel AChE-mediated 3-(4-fluorophenyl)-1-(2-hydroxyphenyl)prop-2-en-1-one formation treated with 0.25U AChE for 9 mins by HPLC analysis; type: ADME; conditions: 0.15 h
[13] = Metal chelating activity assessed as compound-Cu2+ complex formation by measuring maximum absorption wavelength shift from 316 to 446 nm at 37.5 uM incubated for 30 mins in presence of CuCl2 by UV-Vis spectrometry
[14] = Stability of the compound in artificial intestinal juice assessed as parent compound remaining at 1 mg/ml measured after 8 hrs by UPLC-MS/MS analysis; type: ADME; conditions: read-out: Stability
[15] = target: T2, Cholinesterase; test: Drug metabolism assessed as equine serum BuChE-mediated 3-(4-fluorophenyl)-1-(2-hydroxyphenyl)prop-2-en-1-one formation treated at 150 mmol/L with 0.25U BuChE and measured after 6 secs by HPLC analysis; type: ADME, cell-free; conditions: horse, 6 s, time 6 sec
[16] = Metal chelating activity assessed as compound-Al3+ complex formation by measuring maximum absorption wavelength shift from 316 to 434 nm at 37.5 uM incubated for 30 mins in presence of AlCl3 by UV-Vis spectrometry
[17] = Stability of the compound in rat liver microsomes assessed as parent compound remaining at 10 ug/ml measured after 60 mins by UPLC-MS/MS analysis; type: ADME, Microsome; conditions: at 10 µg/mL, read-out: Stability
[18] = target: Cholinesterase (Equus caballus) (UniProt P81908); test: Reversible inhibition of equine serum BuChE assessed as enzyme activity using butyrylthiocholine chloride as substrate measured after dilution to 1XIC50 by Ellman's method; type: cell-free; parameters: scale not given: the % may be the effect or the level left
[19] = Acute toxicity in zebra fish assessed as effect on liver fluorescence area at 0.3125 to 1.25 ug/ml and measured at 120 hpf by microscopic analysis; parameters: species or system Danio rerio; conditions: zebrafish; dose 0.3125-1.25 µg/ml
[20] = target: T3, Amine oxidase [flavin-containing] B (Homo sapiens, UniProt P27338); test: Inhibition of human recombinant MAO-B expressed in baculovirus-infected BTI cells using kynuramine as substrate incubated for 30 mins by fluorescence based analysis
T3 sequence (P27338 whole entry): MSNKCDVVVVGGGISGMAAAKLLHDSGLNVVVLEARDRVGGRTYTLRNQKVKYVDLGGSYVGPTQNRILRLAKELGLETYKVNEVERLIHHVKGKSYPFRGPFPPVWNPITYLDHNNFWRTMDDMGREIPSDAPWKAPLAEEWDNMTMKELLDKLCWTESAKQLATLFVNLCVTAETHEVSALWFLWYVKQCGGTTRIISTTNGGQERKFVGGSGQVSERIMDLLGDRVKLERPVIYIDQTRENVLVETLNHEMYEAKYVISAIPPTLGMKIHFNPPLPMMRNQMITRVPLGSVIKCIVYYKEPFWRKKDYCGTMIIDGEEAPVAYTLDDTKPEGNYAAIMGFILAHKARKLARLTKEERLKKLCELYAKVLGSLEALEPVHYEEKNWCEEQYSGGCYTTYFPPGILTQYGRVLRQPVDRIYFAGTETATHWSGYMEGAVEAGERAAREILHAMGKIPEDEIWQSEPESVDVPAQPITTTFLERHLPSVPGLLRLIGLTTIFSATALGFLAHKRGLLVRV

[21] = tested on: PC-12; test: Neuroprotective activity against Amyloid beta(25 to 35)-induced cell injury in rat PC12 cells assessed as cell viability at 10 uM pretreated for 2 hrs followed by incubation with Abeta(25 to 35) for 24 hrs by CCK-8 assay (reference value: 41 to 58.6%); type: functional; conditions: time 26 hrs, read-out: Activity
[22] = target: Cholinesterase (Equus caballus) (UniProt P81908); test: Reversible inhibition of equine serum BuChE assessed as enzyme activity using butyrylthiocholine chloride as substrate measured after dilution to 0.1XIC50 by Ellman's method; type: cell-free; parameters: scale not given: the % may be the effect or the level left
[23] = organism: Danio rerio; test: Antialzheimer activity against AlCl3-induced Alzheimer's disease zebra fish model assessed as total distance moved at 0.0049 ug/ml treated for 24 hrs and measured after 24 hrs under dark environment (reference value: 312 cm); type: functional; conditions: dose 0.0049 µg/ml; time 48 hrs
[24] = organism: Danio rerio; test: Antialzheimer activity against AlCl3-induced Alzheimer's disease zebra fish model assessed as total distance moved at 0.078 ug/ml treated for 24 hrs and measured after 24 hrs under light environment (reference value: 230 cm); type: functional; conditions: dose 0.078 µg/ml; time 48 hrs
[25] = target: T1, Acetylcholinesterase; test: Inhibition of electric eel AChE using acetylthiocholine chloride as substrate by Ellman's method

T2 sequence (P81908 whole entry): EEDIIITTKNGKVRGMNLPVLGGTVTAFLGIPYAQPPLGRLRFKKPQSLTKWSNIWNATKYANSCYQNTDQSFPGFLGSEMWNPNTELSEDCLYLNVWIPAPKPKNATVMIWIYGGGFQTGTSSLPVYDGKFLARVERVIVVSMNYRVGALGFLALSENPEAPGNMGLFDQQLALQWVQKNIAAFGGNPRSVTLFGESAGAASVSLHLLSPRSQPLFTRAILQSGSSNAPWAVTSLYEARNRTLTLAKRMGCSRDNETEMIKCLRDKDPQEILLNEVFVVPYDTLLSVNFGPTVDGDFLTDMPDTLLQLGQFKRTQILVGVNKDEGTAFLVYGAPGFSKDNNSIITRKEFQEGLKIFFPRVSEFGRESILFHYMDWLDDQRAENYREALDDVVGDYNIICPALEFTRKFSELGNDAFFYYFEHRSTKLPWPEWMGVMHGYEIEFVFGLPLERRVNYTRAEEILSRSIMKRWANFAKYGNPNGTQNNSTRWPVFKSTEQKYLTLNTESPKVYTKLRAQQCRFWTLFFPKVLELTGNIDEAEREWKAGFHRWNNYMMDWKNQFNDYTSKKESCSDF
T1 sequence (O42275 whole entry): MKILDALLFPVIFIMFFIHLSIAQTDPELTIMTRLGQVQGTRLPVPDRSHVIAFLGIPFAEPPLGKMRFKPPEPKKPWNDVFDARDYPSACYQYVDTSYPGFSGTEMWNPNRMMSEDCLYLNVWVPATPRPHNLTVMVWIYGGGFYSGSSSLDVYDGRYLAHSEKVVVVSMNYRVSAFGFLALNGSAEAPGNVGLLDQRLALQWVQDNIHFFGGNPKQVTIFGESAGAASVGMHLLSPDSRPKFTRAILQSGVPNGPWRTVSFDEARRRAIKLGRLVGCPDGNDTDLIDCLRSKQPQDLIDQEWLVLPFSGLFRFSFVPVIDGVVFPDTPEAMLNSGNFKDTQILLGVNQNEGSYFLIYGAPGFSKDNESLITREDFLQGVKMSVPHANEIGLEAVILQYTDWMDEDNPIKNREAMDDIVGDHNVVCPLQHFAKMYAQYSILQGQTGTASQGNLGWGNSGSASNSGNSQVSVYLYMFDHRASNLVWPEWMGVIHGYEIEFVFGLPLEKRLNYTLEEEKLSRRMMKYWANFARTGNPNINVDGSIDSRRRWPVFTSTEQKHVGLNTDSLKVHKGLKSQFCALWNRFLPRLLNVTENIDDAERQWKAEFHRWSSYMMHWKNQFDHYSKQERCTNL
Cholinesterase (Equus caballus), sequence (P81908 whole entry): as the sequence (P81908 whole entry) above

## CCN(C)C(=O)Oc1ccccc1C(=O)/C=C/c1ccc(F)cc1
[1]
  Activity: Dose-Dependent Effect
[2]
  Activity: Dose-Dependent Effect
[3]
  Activity: 764 cm
[4]
  Drug metabolism: 1.46 mmol/L
[5]
  viability at 20 µM: 79.7%
[6]
  Activity: 11.5 cm/min
[7]
  Activity: 7.5 cm/min
[8]
  Activity: 373 cm
[9]
  Drug metabolism: 14.17 mmol/L
[10]
  K: 4.05 M⁻¹ s⁻¹
[11]
  Drug metabolism: 22.57 mmol/L
[12]
  Km: 85.3 µM
[13]
  Activity: inactive
[14]
  remaining at 8 h, 1 mg/ml: 104%
[15]
  Drug metabolism: 1.51 mmol/L
[16]
  Activity: inactive
[17]
  remaining at 1 h, 10 ug/ml: 96.2%
[18]
  Activity: 51.7%
[19]
  Activity: Non-Toxic
[20]
  IC50: 1.9 µM
[21]
  viability at 10 µM: 75%
[22]
  Activity: 52.6%
[23]
  Activity: 391 cm
[24]
  Activity: 226 cm
[25]
  IC50: 5.3 µM
